Source: PubChem BioAssay (NCI)
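Briefly, cells in 96-well plates were exposed to five compound concentrations for 48 h, and endpoints were estimated by linear interpolation. GI50 = concentration required for 50% inhibition of growth. At the TGI there is no net growth.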

Experiments:
Test in all cases: NCI-60 cell line screen, 48 h
BT-549 breast = tested on: BT-549 breast
HT29 colon = tested on: HT29 colon
OVCAR-8 ovarian = tested on: OVCAR-8 ovarian
HCT-15 colon = tested on: HCT-15 colon
ACHN renal = tested on: ACHN renal
NCI-H460 lung = tested on: NCI-H460 lung
HOP-62 NSCLC = tested on: HOP-62 NSCLC
NCI/ADR-RES ovarian = tested on: NCI/ADR-RES ovarian
A549 NSCLC = tested on: A549 NSCLC
COLO 205 colon = tested on: COLO 205 colon
MCF7 breast = tested on: MCF7 breast
HCT-116 colon = tested on: HCT-116 colon
RPMI-8226 leukemia = tested on: RPMI-8226 leukemia
MALME-3M melanoma = tested on: MALME-3M melanoma
NCI-H23 lung = tested on: NCI-H23 lung
OVCAR-3 ovarian = tested on: OVCAR-3 ovarian
PC-3 prostate = tested on: PC-3 prostate
SK-MEL-28 melanoma = tested on: SK-MEL-28 melanoma
MDA-MB-231 breast = tested on: MDA-MB-231 breast
MOLT-4 leukemia = tested on: MOLT-4 leukemia
SNB-75 CNS = tested on: SNB-75 CNS
UACC-257 melanoma = tested on: UACC-257 melanoma
MDA-MB-435 = tested on: MDA-MB-435
HL-60(TB) leukemia = tested on: HL-60(TB) leukemia
UO-31 renal = tested on: UO-31 renal
IGROV1 ovarian = tested on: IGROV1 ovarian
M14 melanoma = tested on: M14 melanoma
KM12 colon = tested on: KM12 colon
SF-539 CNS = tested on: SF-539 CNS
OVCAR-4 ovarian = tested on: OVCAR-4 ovarian
SR leukemia = tested on: SR leukemia
CAKI-1 renal = tested on: CAKI-1 renal
SK-MEL-5 melanoma = tested on: SK-MEL-5 melanoma
786-0 renal = tested on: 786-0 renal
K-562 leukemia = tested on: K-562 leukemia
EKVX NSCLC = tested on: EKVX NSCLC
OVCAR-5 ovarian = tested on: OVCAR-5 ovarian
TK-10 renal = tested on: TK-10 renal
U251 CNS = tested on: U251 CNS
SF-295 CNS = tested on: SF-295 CNS
SN12C renal = tested on: SN12C renal
HCC-2998 colon = tested on: HCC-2998 colon
NCI-H522 lung = tested on: NCI-H522 lung
HS 578T breast = tested on: HS 578T breast
NCI-H226 lung = tested on: NCI-H226 lung
T-47D breast = tested on: T-47D breast
SF-268 CNS = tested on: SF-268 CNS
SNB-19 CNS = tested on: SNB-19 CNS
CCRF-CEM leukemia = tested on: CCRF-CEM leukemia
UACC-62 melanoma = tested on: UACC-62 melanoma
SK-MEL-2 melanoma = tested on: SK-MEL-2 melanoma
SK-OV-3 ovarian = tested on: SK-OV-3 ovarian
A498 renal = tested on: A498 renal
RXF 393 renal = tested on: RXF 393 renal
SW-620 colon = tested on: SW-620 colon
LOX IMVI melanoma = tested on: LOX IMVI melanoma
HOP-92 NSCLC = tested on: HOP-92 NSCLC
DU-145 prostate = tested on: DU-145 prostate

COc1cc2ncn(-c3cc(OCc4ccccc4Cl)c(C(N)=O)s3)c2cc1OC
GI50 (BT-549 breast): 1.41 µM
TGI (BT-549 breast): > 17 µM
GI50 (HT29 colon): 0.0921 µM
TGI (HT29 colon): > 25 µM
GI50 (OVCAR-8 ovarian): 0.23 µM
TGI (OVCAR-8 ovarian): > 20.7 µM
GI50 (HCT-15 colon): 0.269 µM
TGI (HCT-15 colon): > 25 µM
GI50 (ACHN renal): 1.58 µM
TGI (ACHN renal): > 25 µM
GI50 (NCI-H460 lung): 0.146 µM
TGI (NCI-H460 lung): > 8.64 µM
GI50 (HOP-62 NSCLC): 0.217 µM
TGI (HOP-62 NSCLC): 7.15 µM
GI50 (NCI/ADR-RES ovarian): 0.22 µM
TGI (NCI/ADR-RES ovarian): > 10.3 µM
GI50 (A549 NSCLC): 0.29 µM
TGI (A549 NSCLC): > 10.8 µM
GI50 (COLO 205 colon): 0.111 µM
TGI (COLO 205 colon): > 25 µM
GI50 (MCF7 breast): 0.0885 µM
TGI (MCF7 breast): > 25 µM
GI50 (HCT-116 colon): 0.233 µM
TGI (HCT-116 colon): > 22.1 µM
GI50 (RPMI-8226 leukemia): 0.341 µM
TGI (RPMI-8226 leukemia): > 25 µM
GI50 (MALME-3M melanoma): > 25 µM
TGI (MALME-3M melanoma): > 25 µM
GI50 (NCI-H23 lung): 0.202 µM
TGI (NCI-H23 lung): 4.68 µM
GI50 (OVCAR-3 ovarian): 0.0867 µM
TGI (OVCAR-3 ovarian): 1.99 µM
GI50 (PC-3 prostate): 1 µM
TGI (PC-3 prostate): > 25 µM
GI50 (SK-MEL-28 melanoma): 1.46 µM
TGI (SK-MEL-28 melanoma): > 25 µM
GI50 (MDA-MB-231 breast): 0.247 µM
TGI (MDA-MB-231 breast): 8.13 µM
GI50 (MOLT-4 leukemia): 0.118 µM
TGI (MOLT-4 leukemia): > 25 µM
GI50 (SNB-75 CNS): 0.707 µM
TGI (SNB-75 CNS): 6.47 µM
TGI (UACC-257 melanoma): > 25 µM
GI50 (MDA-MB-435): 0.0745 µM
TGI (MDA-MB-435): 0.351 µM
GI50 (HL-60(TB) leukemia): 0.0741 µM
GI50 (UO-31 renal): 1.14 µM
TGI (UO-31 renal): > 25 µM
GI50 (IGROV1 ovarian): 0.552 µM
TGI (IGROV1 ovarian): > 25 µM
GI50 (M14 melanoma): 0.164 µM
TGI (M14 melanoma): > 25 µM
GI50 (KM12 colon): 0.0806 µM
TGI (KM12 colon): > 11.8 µM
GI50 (SF-539 CNS): 0.249 µM
TGI (SF-539 CNS): 4.31 µM
GI50 (OVCAR-4 ovarian): 2.09 µM
TGI (OVCAR-4 ovarian): > 25 µM
GI50 (SR leukemia): 0.113 µM
TGI (SR leukemia): > 25 µM
GI50 (CAKI-1 renal): 3.02 µM
TGI (CAKI-1 renal): > 25 µM
GI50 (SK-MEL-5 melanoma): 0.0993 µM
TGI (SK-MEL-5 melanoma): 3.13 µM
GI50 (786-0 renal): 0.873 µM
TGI (786-0 renal): > 22.8 µM
GI50 (K-562 leukemia): 0.114 µM
TGI (K-562 leukemia): > 25 µM
GI50 (EKVX NSCLC): 1.25 µM
TGI (EKVX NSCLC): > 25 µM
GI50 (OVCAR-5 ovarian): 0.492 µM
TGI (OVCAR-5 ovarian): > 25 µM
GI50 (TK-10 renal): 3.04 µM
TGI (TK-10 renal): > 22 µM
GI50 (U251 CNS): 0.224 µM
TGI (U251 CNS): 10.4 µM
GI50 (SF-295 CNS): 0.186 µM
TGI (SF-295 CNS): > 11.2 µM
GI50 (SN12C renal): 1.48 µM
TGI (SN12C renal): > 25 µM
GI50 (HCC-2998 colon): 0.488 µM
TGI (HCC-2998 colon): > 25 µM
GI50 (NCI-H522 lung): 0.13 µM
TGI (NCI-H522 lung): 1.13 µM
GI50 (HS 578T breast): 0.609 µM
TGI (HS 578T breast): 5.77 µM
GI50 (NCI-H226 lung): 0.801 µM
TGI (NCI-H226 lung): > 25 µM
GI50 (T-47D breast): 3.78 µM
TGI (T-47D breast): > 25 µM
GI50 (SF-268 CNS): 0.187 µM
TGI (SF-268 CNS): > 13 µM
GI50 (SNB-19 CNS): 1 µM
TGI (SNB-19 CNS): > 25 µM
GI50 (CCRF-CEM leukemia): 0.0781 µM
TGI (CCRF-CEM leukemia): > 10.6 µM
GI50 (UACC-62 melanoma): 0.283 µM
TGI (UACC-62 melanoma): > 25 µM
GI50 (SK-MEL-2 melanoma): 1.5 µM
TGI (SK-MEL-2 melanoma): > 15.9 µM
GI50 (SK-OV-3 ovarian): 0.274 µM
TGI (SK-OV-3 ovarian): 9.32 µM
GI50 (A498 renal): 0.117 µM
TGI (A498 renal): 3.21 µM
GI50 (RXF 393 renal): 0.102 µM
TGI (RXF 393 renal): 4.22 µM
GI50 (SW-620 colon): 0.102 µM
TGI (SW-620 colon): > 18.1 µM
GI50 (LOX IMVI melanoma): 0.169 µM
TGI (LOX IMVI melanoma): > 25 µM
GI50 (HOP-92 NSCLC): 3.8 µM
TGI (HOP-92 NSCLC): > 25 µM
GI50 (DU-145 prostate): 0.105 µM
TGI (DU-145 prostate): 0.511 µM
